The supplement of paper PMC10307832

Columns and labels:
Experiment in all cases: relative viability (nuclei count vs DMSO), 5 days (fraction); higher = more cells survive
[1] = compound: C1=CC2=C(C=C(C(=C2N=C1)O)N=NC3=CC4=C(C=C3)C=C(C=C4)S(=O)(=O)O)S(=O)(=O)O + CC(=O)Nc1cccc(-n2c(=O)n(C3CC3)c(=O)c3c(Nc4ccc(I)cc4F)n(C)c(=O)c(C)c32)c1 [Trametinib] (partner 0.02 µM)
Outline: (§1)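 Lung cancer cell lines in 1536-well plates got either a single drug or a fixed anchor-drug dose together with five library-drug doses (not always all listed) in √10 steps, by pin tool, on the day after seeding. Nuclei were counted after 5 days, and relative viability is the treated-to-vehicle ratio of nuclei counts. Values are medians of duplicate plates.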

AT-7519 = compound: O=C(NC1CCNCC1)c1n[nH]cc1NC(=O)c1c(Cl)cccc1Cl [AT-7519]
Outline: (§2)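 Nuclei counted with MetaXpress define viability as the ratio of treated to vehicle wells, given as a median across plates. The lung cancer cell lines were in 1536-well plates, pinned with five √10-spaced library-drug doses and imaged at 4× after 5 days and Hoechst staining. Plates passed with control CV below 25% and at least one doubling.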

[2] = compound: C1=CC2=C(C=C(C(=C2N=C1)O)N=NC3=CC4=C(C=C3)C=C(C=C4)S(=O)(=O)O)S(=O)(=O)O
Outline: as §2

AT-7519 + Navitoclax = compound: O=C(NC1CCNCC1)c1n[nH]cc1NC(=O)c1c(Cl)cccc1Cl [AT-7519] + CC1(C)CCC(c2ccc(Cl)cc2)=C(CN2CCN(c3ccc(C(=O)NS(=O)(=O)c4ccc(N[C@H](CCN5CCOCC5)CSc5ccccc5)c(S(=O)(=O)C(F)(F)F)c4)cc3)CC2)C1 [Navitoclax] (partner 0.5 µM)
Outline: as §1

Cell Line | relative viability ([1]; first compound 0.253 µM) | relative viability ([1]; first compound 8 µM) | relative viability (AT-7519; 0.01 µM) | relative viability (AT-7519; 0.3162 µM) | relative viability (AT-7519; 1 µM) | relative viability ([2]; 0.08 µM) | relative viability ([2]; 0.253 µM) | relative viability ([2]; 0.8 µM) | relative viability ([2]; 2.53 µM) | relative viability ([2]; 8 µM) | relative viability ([1]; first compound 0.08 µM) | relative viability ([1]; first compound 0.8 µM) | relative viability ([1]; first compound 2.53 µM) | relative viability (AT-7519 + Navitoclax; first compound 0.01 µM) | relative viability (AT-7519 + Navitoclax; first compound 0.03162 µM) | relative viability (AT-7519 + Navitoclax; first compound 0.3162 µM) | relative viability (AT-7519 + Navitoclax; first compound 1 µM) | relative viability (AT-7519; 0.03162 µM)
NCI-H1648 | 0.57 | 0.59 | 0.877 | 0.832 | 0.711 | 0.747 | 0.816 | 0.677 | 0.682 | 1.04 | – | – | – | – | – | – | – | –
SK-MES-1 | 0.54 | 0.548 | 1.02 | 1 | 0.771 | 1.03 | 0.967 | 0.968 | 0.987 | 1.02 | 0.514 | 0.587 | 0.585 | 1.18 | 1.08 | 1.25 | 1.15 | 0.968
HCC-366 | 0.342 | 0.302 | 1.06 | 0.993 | 0.926 | 1.04 | 0.964 | 0.993 | 0.997 | 0.897 | 0.402 | 0.398 | 0.432 | 1.07 | 1.16 | 1.07 | 0.672 | 1.03
201T | 0.731 | 0.693 | 1.02 | 1.04 | 1.11 | 1.01 | 0.995 | 0.985 | 1.03 | 0.982 | 0.721 | 0.713 | 0.709 | 1.19 | 1.17 | 1.27 | 1.25 | 0.988
HCC-827 | 0.521 | 0.578 | 1.04 | 1.02 | 0.997 | 1.08 | 0.997 | 1.01 | 1.02 | 1.04 | 0.505 | 0.524 | 0.524 | 0.991 | 1.1 | 0.996 | 0.995 | 1.04
NCI-H647 | 0.429 | 0.518 | 1 | 0.886 | 0.72 | 0.877 | 0.932 | 0.881 | 1.08 | 0.971 | 0.584 | 0.426 | 0.54 | 1.11 | 1.19 | 1.12 | 0.762 | 0.923
NCI-H2023 | 0.58 | 0.637 | 1.06 | 0.848 | 0.547 | 1.02 | 0.903 | 0.987 | 1.1 | 0.989 | 0.527 | 0.558 | 0.589 | 1.1 | 0.938 | 0.847 | 0.323 | 0.873
NCI-H520 | 0.6 | 0.807 | 1.06 | 0.915 | 0.695 | 1.09 | 0.926 | 1.02 | 0.985 | 1.08 | 0.784 | 0.768 | 0.625 | 1.14 | 0.991 | 0.986 | 0.605 | 0.925
RERF-LC-KJ | 0.864 | 0.644 | 1.01 | 0.991 | 0.675 | 1.08 | 1.04 | 1.03 | 1.01 | 0.967 | 0.935 | 0.849 | 0.96 | 1.04 | 0.981 | 0.848 | 0.408 | 0.995
A-427 | 0.719 | 0.732 | 1.11 | 0.944 | 0.723 | 1.05 | 0.971 | 0.936 | 0.963 | 0.842 | 0.721 | 0.718 | 0.781 | 0.973 | 0.899 | 1.01 | 0.599 | 1.02
NCI-H441 | 0.464 | 0.476 | 1.03 | 1.05 | 0.523 | 1.16 | 0.942 | 0.898 | 1.06 | 0.947 | 0.558 | 0.435 | 0.341 | 0.592 | 0.628 | 0.571 | 0.412 | 1.02
NCI-H1703 | – | – | 0.865 | 0.866 | 0.261 | 0.942 | 0.772 | 0.99 | 0.884 | 1.04 | – | – | – | 0.956 | 1.01 | 1.01 | 0.225 | 0.845
NCI-H1792 | 0.387 | 0.391 | 0.664 | 0.874 | 0.989 | 0.951 | 0.858 | 0.877 | 0.852 | 0.974 | 0.5 | 0.454 | 0.494 | 0.406 | 0.552 | 0.642 | 0.752 | 0.768
Calu-6 | – | – | 1.06 | 1.11 | 0.593 | 1 | 1.02 | 0.962 | 1.01 | 1.01 | – | – | – | 1.09 | 0.89 | 0.901 | 0.115 | 0.943
SK-LU-1 | 0.509 | 0.672 | 1.08 | 0.924 | 0.73 | 1.17 | 1.02 | 1.02 | 0.979 | 0.988 | 0.681 | 0.517 | 0.499 | 0.516 | 0.848 | 0.882 | 0.189 | 0.959
PC-3 [JPC-3] | 0.725 | 0.644 | 1.01 | 1.01 | 1.03 | 1.04 | 1.03 | 1.04 | 1.06 | 0.997 | 0.78 | 0.737 | 0.735 | 0.754 | 0.714 | 0.867 | 0.934 | 1.02
EMC-BAC-2 | 0.853 | 0.911 | 0.954 | 0.996 | 1.11 | 0.916 | 1.02 | 1.03 | 1.01 | 0.93 | 0.964 | 0.912 | 0.997 | 0.89 | 1.02 | 1.05 | 1.18 | 0.934

Cell Line | relative viability ([1]; first compound 0.253 µM) | relative viability ([1]; first compound 8 µM) | relative viability (AT-7519; 0.01 µM) | relative viability (AT-7519; 0.3162 µM) | relative viability (AT-7519; 1 µM) | relative viability ([2]; 0.08 µM) | relative viability ([2]; 0.253 µM) | relative viability ([2]; 0.8 µM) | relative viability ([2]; 2.53 µM) | relative viability ([2]; 8 µM) | relative viability ([1]; first compound 0.08 µM) | relative viability ([1]; first compound 0.8 µM) | relative viability ([1]; first compound 2.53 µM) | relative viability (AT-7519 + Navitoclax; first compound 0.01 µM) | relative viability (AT-7519 + Navitoclax; first compound 0.03162 µM) | relative viability (AT-7519 + Navitoclax; first compound 0.3162 µM) | relative viability (AT-7519 + Navitoclax; first compound 1 µM) | relative viability (AT-7519; 0.03162 µM)
LK-2 | 0.602 | 0.552 | 0.961 | 0.857 | 0.682 | 1.05 | 0.973 | 0.876 | 0.911 | 0.797 | 0.795 | 0.607 | 0.776 | 0.76 | 0.75 | 0.77 | 0.745 | 0.934
NCI-H2126 | 0.539 | 0.555 | 1.01 | 0.94 | 0.875 | 1.05 | 0.996 | 0.908 | 1.04 | 0.964 | 0.568 | 0.56 | 0.606 | 0.893 | 0.866 | 0.83 | 0.823 | 1
NCI-H3122 | 0.225 | 0.225 | 1.09 | 1.01 | 0.699 | 1.03 | 0.976 | 0.98 | 0.999 | 0.956 | 0.218 | 0.227 | 0.242 | 1.02 | 1.07 | 1.06 | 0.558 | 1
NCI-H1299 | – | – | 1.05 | 1.02 | 1.18 | 1.02 | 1.01 | 1 | 1.04 | 1 | – | – | – | 1.12 | 1.02 | 1.08 | 1.24 | 1.02
LCLC-103H | 0.706 | 0.675 | 1.08 | 1.01 | 1.07 | 1.02 | 0.998 | 0.976 | 1.02 | 1.03 | 0.661 | 0.658 | 0.667 | – | – | – | – | 0.983
ABC-1 | – | – | 1.1 | 0.787 | 0.699 | 0.923 | 0.743 | 0.744 | 1.08 | 0.776 | – | – | – | – | – | – | – | 0.876
NCI-H650 | 0.947 | 0.894 | 1.02 | 1.01 | 1.03 | 0.883 | 0.937 | 0.86 | 0.969 | 0.671 | 0.947 | 0.875 | 0.948 | – | – | – | – | 0.871
SW 900 | 0.764 | 0.821 | 0.771 | 0.786 | 0.657 | 1.07 | 0.971 | 0.802 | 0.918 | 0.841 | 0.873 | 0.699 | 0.968 | – | – | – | – | 0.866
NCI-H661 | 0.532 | 0.613 | 1.04 | 1.02 | 0.648 | 1.02 | 1 | 0.969 | 1.01 | 0.967 | 0.627 | 0.568 | 0.625 | – | – | – | – | 0.874
NCI-H1563 | – | – | 0.955 | 1.02 | 0.998 | 1.09 | 0.96 | 0.995 | 0.949 | 0.878 | – | – | – | – | – | – | – | 0.934
A549 | – | – | 0.978 | 0.931 | 0.792 | 1.1 | 0.986 | 0.926 | 1 | 0.884 | – | – | – | 1.18 | 1.25 | 1.15 | 0.837 | 0.903
NCI-H2342 | 0.884 | 0.764 | 0.909 | 0.906 | 0.92 | 0.991 | 0.989 | 0.841 | 1.04 | 0.876 | 0.82 | 0.943 | 0.808 | – | – | – | – | 0.96
NCI-H1623 | – | – | 0.982 | 1.05 | 0.773 | 0.925 | 0.995 | 0.953 | 1.06 | 0.852 | – | – | – | – | – | – | – | 0.934
NCI-H522 | 0.676 | 0.894 | 0.814 | 0.873 | 0.897 | 0.965 | 0.984 | 0.872 | 1.02 | 0.774 | 0.494 | 0.748 | 0.791 | – | – | – | – | 0.933
IA-LM | – | – | 0.912 | 0.856 | 0.854 | 1.02 | 0.954 | 0.785 | 0.896 | 0.934 | – | – | – | 0.917 | 0.865 | 0.69 | 0.435 | 0.874
NCI-H358 | 0.128 | 0.144 | 0.889 | 0.85 | 0.31 | 1.08 | 0.978 | 0.841 | 0.943 | 1.01 | 0.158 | 0.142 | 0.136 | – | – | – | – | 0.86
EBC-1 | – | – | 0.934 | 0.923 | 0.645 | 1.04 | 0.933 | 0.941 | 0.99 | 1.07 | – | – | – | 0.368 | 0.347 | 0.329 | 0.159 | 0.885
